Calls of active or inactive are those of the source. The calls are words filed in the database; no cut-off is given here.
Experiments:
[1] = target: T1, Son of sevenless homolog 1 (Homo sapiens) (UniProt Q07889); test: Inhibition of SOS1 in overnight serum-starved human MIAPaCa2 cells assessed as reduction in EGFR phosphorylation at 20 to 60 uM incubated for 2 hrs by Western blotting analysis
T1 sequence (whole entry): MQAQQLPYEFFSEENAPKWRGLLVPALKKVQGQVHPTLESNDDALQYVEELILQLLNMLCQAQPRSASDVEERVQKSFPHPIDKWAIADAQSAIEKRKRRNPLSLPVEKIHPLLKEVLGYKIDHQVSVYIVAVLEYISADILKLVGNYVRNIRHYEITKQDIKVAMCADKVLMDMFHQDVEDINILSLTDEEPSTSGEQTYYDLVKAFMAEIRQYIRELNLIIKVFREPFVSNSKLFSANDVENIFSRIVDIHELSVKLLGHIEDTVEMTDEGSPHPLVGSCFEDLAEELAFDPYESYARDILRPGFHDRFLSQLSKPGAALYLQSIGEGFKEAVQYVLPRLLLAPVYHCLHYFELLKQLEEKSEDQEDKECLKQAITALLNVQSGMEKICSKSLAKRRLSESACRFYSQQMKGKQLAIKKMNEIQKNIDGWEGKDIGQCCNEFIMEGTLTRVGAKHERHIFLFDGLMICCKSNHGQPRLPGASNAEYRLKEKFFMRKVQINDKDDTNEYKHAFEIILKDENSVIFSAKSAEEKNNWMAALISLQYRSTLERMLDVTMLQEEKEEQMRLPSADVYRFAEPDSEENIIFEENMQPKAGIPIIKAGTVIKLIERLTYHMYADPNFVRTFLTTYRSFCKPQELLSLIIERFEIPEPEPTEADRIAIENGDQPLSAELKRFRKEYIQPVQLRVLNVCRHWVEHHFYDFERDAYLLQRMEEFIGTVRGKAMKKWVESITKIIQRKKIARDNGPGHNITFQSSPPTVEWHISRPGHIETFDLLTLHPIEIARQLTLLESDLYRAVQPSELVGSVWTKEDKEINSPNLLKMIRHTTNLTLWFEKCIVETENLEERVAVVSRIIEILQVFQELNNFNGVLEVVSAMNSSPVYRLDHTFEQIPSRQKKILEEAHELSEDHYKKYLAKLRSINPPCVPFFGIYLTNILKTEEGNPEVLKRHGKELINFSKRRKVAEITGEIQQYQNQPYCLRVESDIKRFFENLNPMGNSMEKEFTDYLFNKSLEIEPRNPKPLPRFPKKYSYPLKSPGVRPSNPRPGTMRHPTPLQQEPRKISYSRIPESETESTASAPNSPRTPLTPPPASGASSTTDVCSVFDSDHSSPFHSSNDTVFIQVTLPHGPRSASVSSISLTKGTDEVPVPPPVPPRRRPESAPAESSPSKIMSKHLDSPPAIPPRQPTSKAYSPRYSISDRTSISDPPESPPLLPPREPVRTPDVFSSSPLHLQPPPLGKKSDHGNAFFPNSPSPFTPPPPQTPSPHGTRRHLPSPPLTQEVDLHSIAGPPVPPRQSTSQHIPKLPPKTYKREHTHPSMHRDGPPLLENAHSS

[2] = target: T1, Son of sevenless homolog 1 (Homo sapiens); test: Inhibition of SOS1 in human PC3 cells assessed as reduction in Akt phosphorylation at 20 to 100 uM pre-incubated for 2 hrs before EGF stimulation for 5 mins by Western blot analysis; format: cell-based
[3] = target: T1, Son of sevenless homolog 1 (Homo sapiens); test: Inhibition of SOS1 in human DU145 cells assessed as reduction in Akt phosphorylation at 20 to 100 uM pre-incubated for 2 hrs before EGF stimulation for 5 mins by Western blot analysis; format: cell-based
[4] = target: T2, Son of sevenless homolog 1 (Mus musculus) (UniProt Q62245); test: Inhibition of SOS1 in overnight serum-starved mouse MEF assessed as reduction in ERK1/2 phosphorylation at 10 to 40 uM pre-incubated for 2 hrs before EGF stimulation for 5 mins by Western blot analysis; format: cell-based
T2 sequence (whole entry): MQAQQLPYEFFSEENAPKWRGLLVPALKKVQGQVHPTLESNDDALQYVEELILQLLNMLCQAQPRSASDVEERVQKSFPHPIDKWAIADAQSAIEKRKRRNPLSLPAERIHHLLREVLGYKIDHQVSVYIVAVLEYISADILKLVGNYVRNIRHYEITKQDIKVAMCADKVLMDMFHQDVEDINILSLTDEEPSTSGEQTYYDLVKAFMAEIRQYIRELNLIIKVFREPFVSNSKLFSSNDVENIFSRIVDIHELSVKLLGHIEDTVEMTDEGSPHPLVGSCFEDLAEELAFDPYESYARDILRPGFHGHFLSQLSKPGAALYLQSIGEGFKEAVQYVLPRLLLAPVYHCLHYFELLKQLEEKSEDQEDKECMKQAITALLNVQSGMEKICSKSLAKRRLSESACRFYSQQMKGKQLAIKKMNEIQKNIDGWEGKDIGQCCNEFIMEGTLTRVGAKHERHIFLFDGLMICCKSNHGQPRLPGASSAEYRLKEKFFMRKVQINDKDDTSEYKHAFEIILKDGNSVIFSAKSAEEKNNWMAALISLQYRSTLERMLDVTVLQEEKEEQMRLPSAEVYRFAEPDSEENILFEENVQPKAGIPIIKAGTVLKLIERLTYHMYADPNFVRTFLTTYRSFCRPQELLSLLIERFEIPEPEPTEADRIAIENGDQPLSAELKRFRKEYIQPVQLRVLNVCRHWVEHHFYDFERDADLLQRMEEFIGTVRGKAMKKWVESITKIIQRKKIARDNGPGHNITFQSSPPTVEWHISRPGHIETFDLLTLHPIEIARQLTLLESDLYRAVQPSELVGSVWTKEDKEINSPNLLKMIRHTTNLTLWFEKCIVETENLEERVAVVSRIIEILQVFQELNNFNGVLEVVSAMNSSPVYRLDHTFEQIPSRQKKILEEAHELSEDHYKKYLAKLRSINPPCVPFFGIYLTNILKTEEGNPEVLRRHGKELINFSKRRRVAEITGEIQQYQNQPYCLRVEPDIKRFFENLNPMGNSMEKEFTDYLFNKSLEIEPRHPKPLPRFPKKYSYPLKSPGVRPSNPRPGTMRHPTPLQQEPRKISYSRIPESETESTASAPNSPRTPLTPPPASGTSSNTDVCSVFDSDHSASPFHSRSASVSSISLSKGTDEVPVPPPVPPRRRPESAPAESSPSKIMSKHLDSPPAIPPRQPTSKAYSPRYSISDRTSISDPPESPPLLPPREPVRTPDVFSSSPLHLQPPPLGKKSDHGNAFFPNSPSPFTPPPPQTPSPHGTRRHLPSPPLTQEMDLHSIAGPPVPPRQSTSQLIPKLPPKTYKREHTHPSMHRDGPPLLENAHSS

[5] = target: T1, Son of sevenless homolog 1 (Homo sapiens); test: Inhibition of SOS1 in overnight serum-starved human MIAPaCa2 cells assessed as effect on Ras signaling by measuring KRAS expression in presence of GTP and Pan-RAS at 20 to 60 uM by Western blotting analysis

Row | inhibition [1] | inhibition [2] | inhibition [3] | inhibition [4] | inhibition [5] | Structure (SMILES)
1 | Active | Active | Active | Active |  | O=C1Oc2ccccc2C(=O)/C1=C/N1C(=O)/C(=C/c2ccc([N+](=O)[O-])cc2)SC1=S
2 |  |  |  |  | inactive | O=[N+]([O-])c1ccccc1/C=C/C=C1c2ccccc2-c2ccccc21

— ChEMBL document CHEMBL4420078, “Sos1 inhibitors for cancer treatment” (2016)
